Measured values: patent publication US9237749B2, “Antimicrobial combinations of pyrion compounds with polyethyleneimines” (Janssen Pharmaceutica N.V., priority 2010, dated 2016)
Read-outs that look alike come from different tables or passages of the source.

Columns and labels:
Assay in all cases: Poison Plate Assay
Type in all cases: cell-based
[1] = tested on: Humicola grisea MG28; details: Mycothermus thermophilus, MG28, 336 h, read-out: MIC-values in ppm
Description: (§1) • Name of component: sodium pyrithione (I-a) • PEI 1300 (II-a) having an average molecular weight of approximately 1300 • PEI 70000 (II-b) having an average molecular weight of approximately 70000 • PEI 750000 (II-c) having an average molecular weight of approximately 750000 • Test models: Fungi: to each well of a 24-well microtiter plate, 1000 μl of a rich (Potato Dextrose Agar, PDA: 4 g potato infusion, 20 g bacto dextrose and 15 g bacto agar in 1 liter deionised water) containing the appropriate combination of the test compounds in one of the concentrations of a dose series is added. The nutrient medium is inoculated with the test fungi by adding a spore/mycelium suspension (10 μl) or a small piece of agar from the margin of an actively growing colony and incubated under dark at 27° C. with 70% relative humidity. The growth of the fungi is evaluated after two weeks. • Concentrations: a 24-step doses series is applied, each step being 0.75 times the previous step, as follows: 25.00−18.75 . . . 0.04−0.03 ppm • Test combinations:
(§2) A. G. Nass (1957) “Some aspects of the notions additivity, synergism and antagonism in the simultaneous activity of two antibacterial agents in vitro” Arch. intern. Pharmacodynamie 109: 211-228; Steinberg, D. C. (2000) “Measuring synergy” cosmetics & Toiletries 115(11): 59-62; which is calculated as follows for two compounds A and B: […]
(§3) When the SI is equal to 1.0, additivity is indicated. […].

[2] = tested on: Aspergillus niger CBS554.65; details: CBS554, 336 h, read-out: MIC-values in ppm
Description: as §1, §2, §3

[3] = tested on: Colletotrichum musae MUCL nr2; details: MUCLNR2, 336 h
Description: as §1, §2, §3

[4] = tested on: Trichoderma viride CBS189.79; details: CBS189, 336 h
Description: as §1, §2, §3

[5] = read-out: MIC-values in ppm, Table 1, (I-a) with PEI 1300 (II-a), PDA, 27° C., growth evaluated after two weeks
[6] = read-out: MIC-values in ppm, Table 2, (I-a) with PEI 70000 (II-b), PDA, 27° C., growth evaluated after two weeks

[O-][n+]1ccccc1S [I-a, sodium pyrithione]
MIC [1]: 0.45 µg/mL
MIC [2]: 0.25 µg/mL
MIC [3, 5]: 0.06 µg/mL
MIC [3, 6]: 0.08 µg/mL
MIC [4, 5]: 1.06 µg/mL
MIC [4, 6]: 1.06 µg/mL
MIC ([4]; read-out: MIC-values in ppm, Table 3, (I-a) with PEI 750000 (II-c), PDA, 27° C., growth evaluated after two weeks): 0.59 µg/mL
